The source of these data is the METLIN SMRT retention time set (Domingo-Almenara et al. 2019).

This data set can be described thus: gradient 5% acetonitrile 3 min, to 50% in 2 min, to 85% in 15 min, held 3 min, 100 µL/min. The settings on record: column: Zorbax Extend-C18 2.1 x 50 mm; eluents: water / acetonitrile, 0.1% formic acid. In outline:
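Retention times come from adduct peaks that were picked computationally and then checked by hand. The standards, pure and pooled in mixtures of ~100 molecules, were run on a Zorbax Extend-C18 column (2.1 × 50 mm, 1.8 μm) at 100 μL/min with water and acetonitrile, each with 0.1% formic acid. Detection was by quadrupole time-of-flight mass spectrometry in positive and negative ionization mode, with a dead volume of 40 μL and a dwell volume of 900 μL.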
The compound `CCc1cc(N2CCN(C(=O)COc3ccc(Cl)cc3)CC2)nc2nncn12` returned an RP-LC retention time of 651 s.

In turn, `COc1ccc(CC2C(=O)Nc3ccc(Cl)cc32)cc1` (stereo not drawn) showed an RP-LC retention time of 888 s.

Take `Cc1ccc(S(=O)(=O)Nc2cncc(C(=O)O)c2)cc1`: the RP-LC retention time worked out at 614 s.

In turn, `CC(C)n1cnc(S(=O)(=O)N2CCC(C(=O)NCc3ccc(Cl)cc3)CC2)c1` showed an RP-LC retention time of 749 s.

Regarding `C=CCNC(=O)c1c(O)c2cccnc2n(-c2ccc(OC)cc2)c1=O`, the RP-LC retention time stood at 1020 s.

In the case of `COc1ccc(-n2nnc(-c3nsc(Nc4ccc(Cl)cc4)n3)c2C)cc1`, the RP-LC retention time amounted to 1060 s.

Turning to `Cc1sc(-c2nc(-c3ccc(F)cc3)no2)cc1S(=O)(=O)N1CCN(c2ncccn2)CC1`, the RP-LC retention time stood at 1240 s.

Consider `Cc1ccc(NC(=O)C2CCN(C(=O)c3ncn4c3COC(c3ccc(F)cc3)C4)CC2)cc1F` (stereo not drawn), for which the RP-LC retention time was 854 s.

As to `Cc1nc(-c2nnn(-c3ccc(Cl)cc3)c2C)sc1C(=O)NC1CCCCC1`, the RP-LC retention time turned out to be 1160 s.

Compound `Cc1cccc(CNC(=O)C2CCCN(C(=O)C3Sc4ccccc4NC3=O)C2)c1` (stereo not drawn) returned an RP-LC retention time of 762 s.

As for `CCC(=O)Nc1ccc(-n2cnc(C(=O)N3CCN(c4cccc(C)c4C)CC3)c2)nc1`, the RP-LC retention time was 855 s.

Take `Cc1ccc(-c2csc(NC3OC(=O)c4ccccc43)n2)cc1C` (stereo not drawn): the RP-LC retention time came out at 808 s.

In turn, `O=C1C(c2cccnc2)N(Cc2ccc3c(c2)OCO3)C(=O)CN1c1ccccc1` (stereo not drawn) came in with an RP-LC retention time of 636 s.

Compound `C=CCN(CC=C)S(=O)(=O)c1ccc2nc(NC(=O)Cc3cccs3)sc2c1` yielded an RP-LC retention time of 936 s.

With `CCOc1ccc(CNC(=O)CCc2c(-c3ccc(Br)cc3)nc3ccccn23)cc1`, the RP-LC retention time turned out to be 717 s.

For the compound `O=C(Nc1ccccc1Cl)c1c(O)c2cccnc2n(-c2ccc(F)cc2)c1=O`, the RP-LC retention time was 1270 s.

Consider `O=C(c1csc(-c2ccnc(N3CCOCC3)c2)n1)N1CCCCCC1`, for which the RP-LC retention time is 689 s.

`CC(C)NC(=O)c1ccc(OCC2CCN(C(=O)c3c(F)cccc3F)CC2)cc1` registered an RP-LC retention time of 862 s.

Consider `CC1CCC(NC(=O)C2CCN(S(=O)(=O)c3ccc4c(c3)sc(=O)n4C)CC2)CC1` (stereo not drawn), for which the RP-LC retention time worked out at 896 s.

As for `COc1ccc(OCC2CN(C(=O)Cc3ccc(OC)c(OC)c3OC)CCO2)cc1` (stereo not drawn), the RP-LC retention time turned out to be 794 s.

Compound `CC(C)n1nc(CO)c2c1CCN(C(=O)C1COc3ccccc3O1)C2` (stereo not drawn) came in with an RP-LC retention time of 667 s.

`CN(C)S(=O)(=O)c1ccc(C(=O)Nc2nc(-c3ccc4c(c3)OCO4)cs2)cc1` had an RP-LC retention time of 910 s.

`NC(=O)C1CCN(c2ccc3cccc(OCc4ccccc4Cl)c3n2)CC1` returned an RP-LC retention time of 593 s.

With `O=c1nc(Oc2ccccc2)nc2ncccn12`, the RP-LC retention time turned out to be 688 s.

Compound `Cc1ccc(-c2noc(C3CCCN3S(=O)(=O)c3ccc(C)c(C)c3)n2)cc1` (stereo not drawn) displayed an RP-LC retention time of 1260 s.

As to `CNC(=O)NC1CCN(C(=O)c2ccc(F)cc2)C1` (stereo not drawn), the RP-LC retention time came out at 600 s.

`Cc1cccc(CNC(=O)C2CCN(S(=O)(=O)c3c(C)[nH]c(C)c3C(=O)N3CCCC3)CC2)c1` had an RP-LC retention time of 695 s.

`CC(=O)N1c2ccc(S(=O)(=O)N3CCCCC3)cc2CC1C(=O)NCc1ccc(N(C)C)cc1` (stereo not drawn) gave an RP-LC retention time of 879 s.

Turning to `CCOc1ccc(N2C=C(C(=O)N3CCOCC3)S(=O)(=O)c3ccc(F)cc32)cc1`, the RP-LC retention time was 845 s.

With `CC(C)(C)c1ccc(NS(=O)(=O)c2ccc(N)cc2)cc1`, the RP-LC retention time is 971 s.

For `CCCC(=O)Nc1cc2c(cc1N1CCC(C(=O)OCC)CC1)n(C)c(=O)c(=O)n2C`, the RP-LC retention time is 804 s.

On to `O=C1CCCc2cc(S(=O)(=O)N3CCCC(C(=O)N4CCN(c5ccccc5)CC4)C3)ccc2N1` (stereo not drawn), for which the RP-LC retention time turned out to be 788 s.

`COc1ccc(-c2nc(C)cc(C)c2CNS(=O)(=O)c2cccc(F)c2)cc1` had an RP-LC retention time of 657 s.

`O=C(NC1CCCCCC1)C1CCCN(C(=O)Cc2cccc3ccccc23)C1` (stereo not drawn): the RP-LC retention time was 983 s.

`Cc1cc(-c2nnc(C3CCC3)o2)c(C)n1CC(=O)NCc1ccccc1F`: the RP-LC retention time was 858 s.

`CCOCCCNC(=O)C1Cn2cccc2C(=O)N1` (stereo not drawn) returned an RP-LC retention time of 592 s.

The compound `CN1CCN(CCNC(=O)Cn2c(=O)c3cccn3c3ccc(F)cc32)CC1` came in with an RP-LC retention time of 578 s.

In the case of `NC(=O)CNC(=O)c1sc2ncccc2c1-n1cccc1`, the RP-LC retention time stood at 622 s.

`O=c1[nH]cc(S(=O)(=O)N2CCc3ccccc3C2)c(=O)[nH]1` displayed an RP-LC retention time of 663 s.

As to `Cc1csc(NC(=O)C2CCN(S(=O)(=O)c3cc(C(=O)N4CCOCC4)cs3)CC2)n1`, the RP-LC retention time was 702 s.

In turn, `CCOc1ccccc1CNC(=O)C1CCN(S(=O)(=O)c2ccc3c(c2)sc(=O)n3C)CC1` yielded an RP-LC retention time of 878 s.

In the case of `CCN1C(=O)COc2ccc(-c3noc(-c4ccccc4)n3)cc21`, the RP-LC retention time was 1140 s.

For `Cc1ncoc1C(=O)N1CC(n2cc(COc3ccc(F)cc3)nn2)C1`, the RP-LC retention time stood at 722 s.

In turn, `COc1ccc(-c2cc(C(F)(F)F)n3nc(C(=O)O)c(Cl)c3n2)cc1OC` returned an RP-LC retention time of 855 s.

With `O=C(Nc1ccc2c(c1)OCCO2)C1(CCO)CCN(c2ncccn2)C1` (stereo not drawn), the RP-LC retention time was 606 s.

For the compound `COc1ccc(N2C(=O)C3N=NN(Cc4nc(-c5ccc(Br)cc5)no4)C3C2=O)cc1` (stereo not drawn), the RP-LC retention time was 1020 s.

`CCc1csc(-c2ccc(N3CCN(C(=O)c4ccc(OC)c(OC)c4)CC3)nc2)n1` came in with an RP-LC retention time of 839 s.

In turn, `Cc1cc(C(=O)N(CC2CCCO2)c2nc3c(F)cc(F)cc3s2)on1` (stereo not drawn) showed an RP-LC retention time of 1080 s.

Turning to `C=CCNC(=O)N1CCCN(C2=NS(=O)(=O)C(c3ccc(CC)cc3)=C2C)CC1`, the RP-LC retention time amounted to 790 s.

In turn, `Cn1nc(-c2ccc(NC(=O)c3ccc([N+](=O)[O-])cc3Cl)cc2)ccc1=O` gave an RP-LC retention time of 714 s.

`O=S(=O)(NCc1cccnc1)c1ccc(Cl)c(-c2nnc(-c3ccccc3)o2)c1` gave an RP-LC retention time of 707 s.

`Cc1ccc2nc(C(=O)NCc3ccc(C)o3)cn2c1` gave an RP-LC retention time of 660 s.

On to `Clc1ccc(-c2nc3ncccn3c2Nc2ccccc2)cc1`, for which the RP-LC retention time amounted to 818 s.

`NC(=O)c1cccc(-c2cc(Nc3ccc(OC(F)(F)F)cc3)ncn2)c1`: the RP-LC retention time amounted to 765 s.

On to `COCCNC(=O)CN1c2ccccc2NC2=C(C(=O)CC(C)(C)C2)C1c1ccc(OC)cc1` (stereo not drawn), for which the RP-LC retention time was 743 s.

As for `COc1ccc(NC(=O)c2csc3c2CCCC3)cc1`, the RP-LC retention time stood at 894 s.

`COC(=O)C1=CN(c2cc(F)ccc2C)c2ccccc2S1(=O)=O`: the RP-LC retention time came to 832 s.

In the case of `CCN1CCCn2cc(S(=O)(=O)Nc3ccc(F)cc3)cc2C1=O`, the RP-LC retention time stood at 721 s.

`CCNc1cc(N2CCC(CCC(=O)Nc3ccc(OC)cc3OC)CC2)ncn1` gave an RP-LC retention time of 665 s.

Regarding `O=C(c1cccs1)N1CCC2(CC1)NC(=O)N(Cc1ccc(Cl)cc1)C2=O`, the RP-LC retention time was 816 s.

For the compound `Cc1ccc(NC(=O)C2CCCN(S(=O)(=O)c3c[nH]c(C(=O)N4CCCC4)c3)C2)cc1Cl` (stereo not drawn), the RP-LC retention time came to 852 s.

Consider `O=C(Cn1cccc(-c2nc(-c3ccccc3)no2)c1=O)Nc1ccc(Br)cc1`, for which the RP-LC retention time was 968 s.

`COc1ccc(-c2nc(CN3C(=O)C(O)(c4ccc(C)cc4)c4ccccc43)c(C)o2)cc1` (stereo not drawn): the RP-LC retention time amounted to 1090 s.

`Cc1nn(C(C)C(=O)NCCc2c[nH]c3ccccc23)c(=O)c2c(C)n(-c3ccccc3)nc12` (stereo not drawn) gave an RP-LC retention time of 904 s.

`COc1ccc(OC)c(CNC(=O)Cn2ccc3ccc(-c4nnc(C)o4)cc32)c1` returned an RP-LC retention time of 770 s.

For the compound `CCN(CC)CCCC(C)Nc1nc(C)cc(Nc2ccc3nc(C)cc(N)c3c2)n1` (stereo not drawn), the RP-LC retention time came to 568 s.

Take `CSc1cccc(NC(=O)N2CCN(Cc3nc4cccnc4n3-c3ccc(F)cc3)CC2)c1`: the RP-LC retention time is 711 s.

`CN1CCN(c2nc3ccc(NC(=O)C4CC(=O)N(c5ccccc5)C4)cc3s2)CC1` (stereo not drawn) displayed an RP-LC retention time of 561 s.

For `CCc1nnc2ccc(-c3noc(-c4ccccc4)n3)cn12`, the RP-LC retention time was determined as 906 s.

For `Brc1ccc(-c2nc(-c3ccc4nncn4c3)no2)cc1`, the RP-LC retention time was 913 s.

`COc1cc(=O)n2c(c1C(=O)Nc1ccc(Cl)c(Cl)c1)CCCC2` displayed an RP-LC retention time of 823 s.

In the case of `O=C(CC1CCCC1)NCC1(c2ccccc2)CCCOCC1` (stereo not drawn), the RP-LC retention time is 872 s.

As for `CC(=O)N1c2ccc(S(=O)(=O)N3CCCCCC3)cc2CC1C(=O)NCc1ccc(C)cc1` (stereo not drawn), the RP-LC retention time turned out to be 929 s.

Take `Cc1ccc(S(=O)(=O)N2CCC3(CC2)NCCN=C3NCc2ccccc2Cl)cc1C`: the RP-LC retention time was 768 s.

As to `Cc1cc(Cl)ccc1NC(=O)N1C[C@@H]2C[C@H]1C[C@@H]2NS(=O)(=O)c1ccccc1`, the RP-LC retention time worked out at 883 s.

For `CCCN(C(=O)c1ccccc1C)c1nc(-c2ccccc2)cs1`, the RP-LC retention time is 1320 s.

With `O=C(O)c1cc2ccccc2cc1Nc1ccccc1`, the RP-LC retention time turned out to be 1140 s.

Regarding `CCOc1ccc(NC(=O)Cn2nc3c(N4CCSCC4)nccn3c2=O)cc1`, the RP-LC retention time turned out to be 816 s.
